Experimental data from PubChem BioAssay AID449764 (Southern Research Specialized Biocontainment Screening …, 2010).

Test system: Mycobacterium tuberculosis H37Rv growth inhibition, no glycerol
Assay: Confirmatory growth inhibition assay, Mycobacterium tuberculosis H37Rv, absence of glycerol (AID 449764);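 also: growth read after 7 days of incubation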
Settings: for IC90: measured here: IC90 growth inhibition

COc1ccccc1N1CCN(/N=C/C(Cl)=C/c2ccccc2)CC1
IC50: 89.6 µM | IC90: > 100 µM

Oc1cccc(-c2nc3ccc4ccccc4c3c3c2CCC3)c1
IC50: 32.4 µM | IC90: 54.3 µM

NC(=O)CSc1nnc(COc2ccc3ccccc3c2)o1
IC50: 20.8 µM | IC90: 27.3 µM

Cc1sc2ncnc(Oc3ccc(-n4ccnc4)cc3)c2c1C
IC50: 39.1 µM | IC90: 61 µM

CCCC1CC(C)(c2csc(Nc3ccc(OCC)cc3)n2)OC1=O (stereo unspecified)
IC50: 35.3 µM | IC90: 44.9 µM

Cc1ccc(Nc2nc(N)nc(CN3CCc4ccccc4C3)n2)cc1
IC50: 5.61 µM | IC90: 18.6 µM

Cc1cc(C(=O)N/N=C\C(Br)=C\c2ccccc2)c(C)o1
IC50: 44.2 µM | IC90: 53.6 µM

CCN(CC)CCN(C(=O)c1ccc(S(=O)(=O)N2CCCC2)cc1)c1nc2cc(C)cc(C)c2s1
IC50: 11.7 µM | IC90: 13.5 µM

CC(=O)N1CCN(c2ccc(Oc3ccc([N+](=O)[O-])c(C(F)(F)F)c3)cc2)CC1
IC50: 93.5 µM | IC90: > 100 µM

CCOC(=O)C(C)Sc1nc(-c2cccs2)ccc1C#N (stereo unspecified)
IC50: 44.2 µM | IC90: 50.3 µM

COC(=O)c1cc(=O)n(-c2ccc(F)cc2)c(=Nc2ccc(F)cc2)s1
IC50: 0.46 µM | IC90: 1.24 µM

Cc1ccc2nc(/C(C#N)=C/c3cn[nH]c3-c3ccc(F)cc3)[nH]c2c1
IC50: 19.2 µM | IC90: 25.4 µM

CCCCOc1ccc(C(=O)N/N=C/c2ccc(OCCN3CCCCC3)c(OC)c2)cc1
IC50: 43.3 µM | IC90: 47.8 µM

COc1ccc(OCc2cccc(C(=O)Nn3cc([N+](=O)[O-])cn3)c2)cc1
IC50: 26.2 µM | IC90: 42.9 µM

C=CCC1(CC=C)CCCN1C(=O)c1cc(COc2ccc(-n3cncn3)cc2)on1
IC50: 47.3 µM | IC90: 57.4 µM

Cc1ccccc1Cn1ccc(=NCc2ccccc2)cc1
IC50: 10.2 µM | IC90: 14 µM

C/C(O)=C\c1nc2ccccc2oc1=O
IC50: 0.75 µM | IC90: 0.89 µM

CC(C)C[C@H](NC(=O)c1nc[nH]c1C(=O)NC1CCN(C(=O)OC(C)(C)C)CC1)C(=O)OCc1ccccc1
IC50: 21.8 µM | IC90: 29.6 µM

CCOC(=O)C1CCCc2c1[nH]c1c(C(N)=O)cccc21 (stereo unspecified)
IC50: 8.59 µM | IC90: 17.3 µM

O=C(Cc1ccc([N+](=O)[O-])cc1)Nc1cc(C(F)(F)F)cc(C(F)(F)F)c1
IC50: 2.48 µM | IC90: 3.41 µM

Cc1ccc(/C=C2\C(=O)Nc3ccccc32)o1
IC50: 4.9 µM | IC90: 6.56 µM

Clc1cc(Cl)cc(Nc2ncn[nH]2)c1
IC50: 64.6 µM | IC90: > 100 µM

CC(C)(C)NC(=O)[C@@H]1C[C@@H]2CCCC[C@@H]2CN1C[C@@H](O)[C@H](Cc1ccccc1)NC(=O)[C@H](CC(N)=O)NC(=O)c1ccc2ccccc2n1
IC50: 32.9 µM | IC90: 52.8 µM

CCOC(=O)COc1ccc(S(=O)(=O)NCCC2=CCCCC2)cc1
IC50: 22.7 µM | IC90: 25.9 µM

CSc1nc2nc3c(c(=O)n2[nH]1)CCCC3
IC50: 23.8 µM | IC90: > 100 µM

O=C(/C=C/c1ccc(O)cc1)c1ccc(NC2=C(N3CCCCC3)C(=O)c3ccccc3C2=O)cc1
IC50: 17.5 µM | IC90: 22.4 µM

N#Cc1ccc(CN2CCN(CC(=O)NCCc3ccc(Cl)cc3Cl)CC2)cc1
IC50: 44.9 µM | IC90: 51.2 µM

O=C(NNC1CC(=O)N(c2ccc(Br)cc2)C1=O)c1ccccn1 (stereo unspecified)
IC50: 29.5 µM | IC90: > 100 µM

N#C/C(N=Nc1ccccc1O)=N\Nc1ccccc1O
IC50: 2.25 µM | IC90: 3.64 µM

CCOC(=O)c1c(NC(=O)C(NCCN(C)C)c2ccccc2)sc2c1CCCC2 (stereo unspecified)
IC50: 9.32 µM | IC90: 12.1 µM

CC(C)(Oc1ccc(Cl)cc1)C(=O)OCC(=O)N1CCN(c2ccccc2)CC1
IC50: 52 µM | IC90: 80.9 µM

CC(=O)Nc1sc2c(c1-c1nc3ccccc3s1)CCN(C(C)C)C2
IC50: 8.64 µM | IC90: 11.2 µM

CC(C)(C)c1ccc(C(O)CCCN2CCC(C(O)(c3ccccc3)c3ccccc3)CC2)cc1 (stereo unspecified)
IC50: 12 µM | IC90: 13.7 µM

CCCCCCCCCCOC(=O)Cn1c(COc2ccc(Cl)cc2)[n+](C)c2ccccc21
IC50: 15.8 µM | IC90: 17.5 µM

CC(=O)c1sc(NC(=O)c2cc(=O)c3ccccc3o2)nc1C
IC50: 18.4 µM | IC90: > 100 µM

Nc1ccc2cc(Br)ccc2c1
IC50: 54.1 µM | IC90: 81.6 µM

Cc1csc(NC(=O)CCCC(=O)O)c1-c1nc2ccccc2s1
IC50: 90.7 µM | IC90: > 100 µM

Oc1ccccc1Nc1nc(NCc2ccccc2)c2ccccc2n1
IC50: 19.1 µM | IC90: 24.1 µM

CCC(C)NC(=O)c1cn(CC)c2cc(N3CCN(C(=O)c4ccco4)CC3)c(F)cc2c1=O (stereo unspecified)
IC50: 23.5 µM | IC90: 29.7 µM

Cc1cc(C(=O)CCl)c(C)n1CCc1ccc(Cl)cc1
IC50: 3.95 µM | IC90: 9.41 µM

Cc1sc2ncnc(N3CCC(C(=O)NCC(=O)Nc4ccc(F)c(F)c4)CC3)c2c1C
IC50: 46.7 µM | IC90: 53.1 µM

COc1cc2c(cc1OC)CN(CCC(=O)c1ccc(Br)cc1)CC2
IC50: 23.4 µM | IC90: 26.7 µM

Clc1cccc(-c2cc3nc4c(c(NCc5ccco5)n3n2)CCCC4)c1
IC50: 22.1 µM | IC90: 24.7 µM

Cc1ccc(C(=O)N/N=C(/CC(=O)c2cccs2)C(F)(F)F)cc1
IC50: 2.25 µM | IC90: 3.18 µM

CN(C)c1ccc(O)c2c1CC1CC3[C@@H](N(C)C)C(=O)C(C(N)=O)C(=O)[C@]3(O)C(=O)C1C2=O (stereo partly specified)
IC50: 1.93 µM | IC90: 3.99 µM

CC(=O)n1cc(/C=C2/N=C(c3ccccc3)OC2=O)c2ccccc21
IC50: 43.4 µM | IC90: > 100 µM

CCOC(=O)c1csc(-c2snnc2C)n1
IC50: 28.4 µM | IC90: > 100 µM

CCn1nc(NC(=O)c2ccncc2)c2cc3cc(C)ccc3nc21
IC50: 4.7 µM | IC90: > 100 µM

COc1ccc(-c2oc(NC(=O)CCl)c(C#N)c2-c2ccc(OC)cc2)cc1
IC50: 43 µM | IC90: 61.7 µM

Cc1ccc(C)c(-c2nn(-c3cc(N4CCN(CCO)CC4)ccc3[N+](=O)[O-])c(=O)c3ccccc23)c1
IC50: 22.6 µM | IC90: 25.7 µM

O=C1c2ccccc2CC1Sc1nnc(-c2ccncc2)o1 (stereo unspecified)
IC90: > 100 µM

CC1CCCCC1NC(=O)c1ccc2c(c1)[nH]c(=O)n2C1CCCC1 (stereo unspecified)
IC50: 9.65 µM | IC90: 14.1 µM

COC(=O)C(C)Oc1ccc(-c2nccc(-c3ccccn3)n2)cc1 (stereo unspecified)
IC50: 3.91 µM | IC90: 6.95 µM

CCCCn1cnc2c(c(-c3ccccc3)c(-c3ccccc3)n2Cc2ccco2)c1=N
IC50: 94.8 µM | IC90: > 100 µM

O=C(Cc1ccc(Nc2nc3ccc(Br)cc3[nH]2)cc1)NCCc1cccs1
IC50: 29.6 µM | IC90: 37 µM

O=c1cc(N=Nc2ccc(Cl)cc2)[nH]c(=O)[nH]1
IC50: 78.9 µM | IC90: > 100 µM

COc1cc(CNCCc2ccccc2)cc(Cl)c1OCc1ccccc1
IC50: 23.8 µM | IC90: 26.2 µM

C#C[C@]1(O)CC[C@H]2[C@@H]3CCc4cc(OC5CCCC5)ccc4[C@H]3CC[C@@]21C
IC50: 36.6 µM | IC90: 54.7 µM

O=C1CN(CC(=O)N2CCCCC2)c2ccccc2O1
IC50: 24.8 µM | IC90: 27.1 µM

C=CCc1cc(C)ccc1OCCCC(C(=O)OCC)C(=O)OCC
IC50: 28.1 µM | IC90: 52.1 µM

COC(=O)C(C)Oc1ccc(Cc2ncc(C(F)(F)F)cc2Cl)cc1 (stereo unspecified)
IC50: 3.43 µM | IC90: 5.97 µM

Cc1ccc(/C=C(\NC(=O)c2ccc(C)cc2)c2nc(=S)[nH][nH]2)cc1
IC50: 45.6 µM | IC90: 49.5 µM

CC/C(C)=N/NC(=S)NCc1ccco1
IC50: 81.1 µM | IC90: 91.7 µM

CCN1CCN(Cc2ccc(NC(=O)c3cc(NC(=O)c4cncc(-c5cccs5)c4)cc(OC)c3)cc2C(F)(F)F)CC1
IC50: 10.3 µM | IC90: 16.5 µM

CCOC(=O)c1cnc2ccc(OCC)cc2c1N1CCN(c2ccccc2)CC1
IC50: 25.9 µM | IC90: 56.7 µM

CN(Cc1ccc(Cl)s1)C(=O)CCl
IC50: 1.54 µM | IC90: 1.73 µM

Cc1ccc(NC(=O)C2C3/C=C\CCCCC32)cc1C (stereo unspecified)
IC50: 2.97 µM | IC90: 4.49 µM

Cc1ccc(C)c(NC(CC(=O)c2ccccc2)C(=O)OCC(=O)c2cccs2)c1 (stereo unspecified)
IC50: 11.1 µM | IC90: 11.7 µM

O=C(Nc1ccc(Oc2cccc(C(F)(F)F)c2)nc1)c1cccs1
IC50: 85.3 µM | IC90: > 100 µM

Nc1ccc(Oc2ccc(F)cc2)nc1
IC50: 70.1 µM | IC90: 85.7 µM

Cc1ccc(Cl)cc1N1CCN(CC(=O)NC2CCCc3ccccc32)CC1 (stereo unspecified)
IC50: 35.6 µM | IC90: 51.1 µM

CCCCC(=O)/C=C/n1c(=S)oc2ccccc21
IC90: > 100 µM

Cc1cc(-c2c(C)[nH]n(-c3ccccc3)c2=O)n[nH]1
IC50: 39.4 µM | IC90: > 100 µM

N#Cc1cccc(NC(=O)N2CCC(c3nc4c(nnn4Cc4cccc(Cl)c4)c(=O)[nH]3)CC2)c1
IC50: 21.2 µM | IC90: 23.3 µM

COc1ccc(C2c3[nH]c4ccccc4c3CCN2Cc2cccn2-c2ncccn2)cc1C (stereo unspecified)
IC50: 36.4 µM | IC90: 47 µM

CCOC(=O)CSc1nnc(-c2c[nH]c3ccccc23)o1
IC50: 8.61 µM | IC90: 22.1 µM

C=CCN(CC(=O)c1sc(C(=O)OCC)nc1C)c1cccc(Br)c1
IC50: 20.8 µM | IC90: 32.6 µM

c1cc(Nc2cccc3nccnc23)c2nccnc2c1
IC50: 24.4 µM | IC90: 28.3 µM

COc1ccc(C2=CC(c3c(C)nn(-c4ccccc4)c3Cl)n3nnnc3N2)cc1OC (stereo unspecified)
IC50: 94.1 µM | IC90: > 100 µM

Fc1ccc2[nH]c3c(NCc4ccccc4)ncnc3c2c1
IC50: 23.8 µM | IC90: 27 µM

O=C(CCl)NN=C(c1ccccc1)c1ccccc1
IC50: 1.32 µM | IC90: 2.09 µM

COC(=O)[C@@H](NC(=O)c1cc(COc2cncc(Cl)c2)on1)c1ccccc1
IC50: 2.93 µM | IC90: 3.31 µM

Cn1cc(C(=O)c2ccc(Cl)cc2)cc1-c1nc2ccccc2n1C
IC50: 35.9 µM | IC90: 49.5 µM

CCOC(=O)c1nc2sc3c(c2c(=O)[nH]1)CCC(C)C3 (stereo unspecified)
IC50: 69.8 µM | IC90: > 100 µM

CCOC(=O)Cn1nc(-c2ccccc2)nc1-c1ccccc1
IC50: 13.1 µM | IC90: 29.4 µM

CCOc1ccc(NC(=O)CSc2nc(O)c(C)c(=O)n2-c2ccc(F)cc2)cc1
IC50: 34.7 µM | IC90: 59.2 µM

Cn1ncnc2c(=O)n(C)c(=O)nc1-2
IC50: 2.84 µM | IC90: 4.51 µM

O=c1[nH]c2ccccc2c2oc(CCl)nc12
IC50: 7.37 µM | IC90: 22.1 µM

CCCCCCCNC(=O)C1(CC2CC(c3cccc(Br)c3)=NO2)CCNCC1 (stereo unspecified)
IC50: 52.1 µM | IC90: 80.4 µM
